Like-named read-outs stand apart in the source and are kept apart here.
Tests used:
[1] = target: T1, CCKB receptor (guinea pig cerebral cortex) (Cavia porcellus, UniProt H0VZC5); assay: 125I-CCK-8 receptor binding assay, CCKB; settings: guinea pig cerebral cortex membranes
T1 construct: CCKB (nM); other: guinea pig cerebral cortex membranes, 125I-Bolton-Hunter CCK 25 pM; Activity CCK-B [μM]; guinea pig cerebral cortex membranes
T1 sequence (H0VZC5 1-426): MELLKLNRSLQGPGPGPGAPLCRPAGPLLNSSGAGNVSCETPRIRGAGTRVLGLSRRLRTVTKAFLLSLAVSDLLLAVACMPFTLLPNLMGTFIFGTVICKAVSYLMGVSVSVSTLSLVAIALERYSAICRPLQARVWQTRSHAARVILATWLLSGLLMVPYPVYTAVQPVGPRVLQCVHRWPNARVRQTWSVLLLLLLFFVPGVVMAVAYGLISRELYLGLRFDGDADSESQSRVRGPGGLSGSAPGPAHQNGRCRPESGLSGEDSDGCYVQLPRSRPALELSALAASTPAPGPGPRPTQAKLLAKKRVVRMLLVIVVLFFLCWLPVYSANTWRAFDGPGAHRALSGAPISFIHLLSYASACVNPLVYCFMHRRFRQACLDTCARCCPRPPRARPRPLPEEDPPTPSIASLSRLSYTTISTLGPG
Protocol: (§1) CCKA and CCKB receptor binding assays were performed, by using guinea pig cerebral cortex (CCKB) or rat pancreas (CCKA). Male guinea pig brain tissues were prepared according to the modified method described by Saita et al, [(1994), Characterization of YM022: its CCKB/gastrin receptor binding profile and antagonism to CCK-8-induced Ca2+mobilization., Eur. J. Pharmacol.,269, 249-254]. Pancreatic membranes were prepared in a similar way but by Charpentier et al, [(1988), Cyclic cholecystokinin analogues with high selectivity for central receptors., Proc Natl Acad Sci USA, 85, 1968-1972]. The […] CCK binding assay: Tissues were homogenized in ice cold sucrose (0.32 M, 25 ml) for 15 strokes at 500 rpm and centrifuged at 13000 rpm for 10 mins. The supernatant was re-centrifuged at 13000 rpm for 20 mins. The resulting pellet was re-dispersed to the required volume of buffer at 500 rpm and stored in aliquots at […].
(§2) Binding was achieved using a radioligand ^125I-Bolton-Hunter labeled CCK, NEN at 25 pM. The samples were incubated {with membranes (0.1 mg/ml) } in 20 mM Hepes, 1 mM EGTA, 5 mM MgCl2, 150 mm NaCl, 0.25 mg/ml bacitracin at pH 6.5 for 2 hrs at RT and then […] by centrifugation at 1100 rpm for 5 minutes. The membrane pellets were washed twice with water and the bound radioactivity was measured in a Packard Cobra Auto-gamma counter (B5005). All binding assays were carried out with L-363, 260 as an internal non-specific standard. Controls (no compound) were also added. All samples were made in duplicate and repeated twice. All compounds were initially screened for percentage inhibition at 20 μm. Samples showing an average inhibition of <35% were diluted to 2 μm and re-screened and if active diluted again.

[2] = test system: CCKB receptor (guinea pig cerebral cortex); assay: 125I-CCK-8 receptor binding assay, CCKB; settings: ratio CCKB/CCKA
Protocol: as §1, §2

[3] = target: T2, CCKA receptor (rat pancreas) (Rattus norvegicus, UniProt P30551); assay: 125I-CCK-8 receptor binding assay, CCKA; settings: rat pancreas membranes, 125I-Bolton-Hunter CCK 25 pM
T2 construct: Pancreatic membranes were prepared in a similar way but by Charpentier et al; from tissue; host or cells: rat pancreas membranes
T2 sequence (P30551 1-444): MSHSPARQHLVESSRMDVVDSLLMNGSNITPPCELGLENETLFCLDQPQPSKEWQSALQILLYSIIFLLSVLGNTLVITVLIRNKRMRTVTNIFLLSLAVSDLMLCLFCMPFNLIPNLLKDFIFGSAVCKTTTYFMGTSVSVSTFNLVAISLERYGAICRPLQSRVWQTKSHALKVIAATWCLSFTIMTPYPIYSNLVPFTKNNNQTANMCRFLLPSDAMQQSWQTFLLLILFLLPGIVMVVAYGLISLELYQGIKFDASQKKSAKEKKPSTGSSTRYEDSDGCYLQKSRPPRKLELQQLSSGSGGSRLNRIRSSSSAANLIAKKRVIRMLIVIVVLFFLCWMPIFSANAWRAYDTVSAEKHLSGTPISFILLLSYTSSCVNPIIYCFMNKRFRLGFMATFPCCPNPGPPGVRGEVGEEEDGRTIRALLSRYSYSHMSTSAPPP
Protocol: as §1, §2

[4] = Table 2, read-out: Activity CCK-B [μM] (IC50)
[5] = 125I-Bolton-Hunter CCK 25 pM, read-out: CCKB

| SMILES | IC50 [1, 4] | further results |
| --- | --- | --- |
| CCCCCCNC1=C(Cl)C(=O)OC1OC (stereo not drawn) [Example 15, 3-Chloro-4-(hexylamino)-5-methoxyfuran-2(5H)-one] | – | IC50 [1, 5]: 0.012 µM; Selectivity [2]: 1.5; IC50 [3]: 8 nM |
| COC1OC(=O)C(Cl)=C1N1CCN(Cc2ccccc2)CC1 (stereo not drawn) [Example A8B16] | 16 µM | – |
| C#CCOC1OC(=O)C(Cl)=C1N1CCN(Cc2ccccc2)CC1 (stereo not drawn) [Example 5, 4-(4-Benzylpiperazin-1-yl) 3-chloro-5-(prop-2-ynyloxy)furan-2(5H)-one] | > 20 µM | – |
| COC1OC(=O)C(Cl)=C1N1CCN(c2ccccc2)CC1 (stereo not drawn) [Example A8B8] | 14 µM | – |
| C#CCOC1OC(=O)C(Cl)=C1NCc1ccccc1 (stereo not drawn) [Example 4, 4-(Benzylamino)-3-chloro-5-(prop-2-ynyloxy)furan-2(5H)-one] | – | IC50 [1, 5]: 0.014 µM; Selectivity [2]: 1.5; IC50 [3]: 9 nM |
| COC1OC(=O)C(Cl)=C1NCCCN1CCOCC1 (stereo not drawn) [Example A8B17] | 15 µM | – |
| O=C1OC(Cl)C(Nc2ccccc2)=C1Cl (stereo not drawn) [Example 8, 4-Anilino-3,5-dichlorofuran-2(5H)-one] | 16 µM | – |
| CC(=O)OC1OC(=O)C(Cl)=C1N1CCc2ccccc21 (stereo not drawn) [Example 2, 4-ClIforo-3-(2,3-dihydro-1H-indol-1-yl)-5-oxo-2,5-dihydrofuran-2-yl acetate] | > 20 µM | – |
| CCCCCCCCCCCCCCCCOC1OC(=O)C(Cl)=C1N1CCN(C(=O)OCC)CC1 (stereo not drawn) [Example A7B24] | 12.4 µM | – |
| CC(C)OC1OC(=O)C(Cl)=C1N(Cc1ccccc1)Cc1ccccc1 (stereo not drawn) [Example 12, 3-Chloro-4-(dibenzylamino)-5-isopropoxyfuran-2(5H)-one] | 17 µM | – |
| CCN(C1=C(Cl)C(=O)OC1CC(=O)c1ccc(Cl)cc1)c1cccc(C)c1 (stereo not drawn) [Example 16, 3-Chloro-5-[2-(4-chlorophenyl)-2-oxoethyl]-4-(ethyl-3-methylanilino) furan-2(5H)-one] | – | IC50 [1, 5]: 0.019 µM; Selectivity [2]: 2.3; IC50 [3]: 8 nM |
| CC(C)CNC1=C(Cl)C(=O)OC1c1ccccc1 (stereo not drawn) [Example 17, 3-Chloro-4-(isobutylamino)-5-phenyl furan-2(5H)-one] | – | IC50 [1, 5]: 0.011 µM; Selectivity [2]: 1.6; IC50 [3]: 7 nM |
| COC1OC(=O)C(Cl)=C1NC1CCC(CCCc2ccccc2)CC1 (stereo not drawn) [Example A8B25] | 16 µM | – |
| C#CCOC1OC(=O)C(Cl)=C1N1CC(C)OC(C)C1 (stereo not drawn) [Example 3, 3-Chloro-4-(2,6-dimethylmorpholin-4-yl)-5-(prop-2-ynyloxy)furan-2(5H)-one] | 12.6 µM | – |
| C#CCOC1OC(=O)C(Cl)=C1N(C(C)C)C1CCCCC1 (stereo not drawn) [Example 6, 3-Chloro-4-[cyclohexyl(isopropyl)amino]-5-(prop-2-ynyloxy)furan-2(5H)-one] | – | IC50 [1, 5]: 0.008 µM; Selectivity [2]: 1.3; IC50 [3]: 6 nM |
| COC1OC(=O)C(Cl)=C1Nc1c(C)n(C)n(-c2ccccc2)c1=O (stereo not drawn) [Example 14] | 18 µM | – |

Continued, in another order:

| IC50 [1, 4] | SMILES | further results |
| --- | --- | --- |
| 11 µM | COC1OC(=O)C(Cl)=C1n1ccc(C)n1 (stereo not drawn) [Example A8B26] | – |
| 3.3 µM | C=COC1OC(=O)C(Cl)=C1Nc1c(C)n(C)n(-c2ccccc2)c1=O (stereo not drawn) [Example 7, 3-Chloro-4-[(1,5-dimethyl-2-phenyl-1,3-dihydro-3H-pyrazol-3-one)amino]-5-(vinyloxy)furan-2(5H)-one] | – |
| 12 µM | CC(C)OC1OC(=O)C(Cl)=C1N(C)Cc1ccccc1 (stereo not drawn) [Example 10, 4-[Benzyl(methyl)amino]-3-chloro-5-isopropoxyfuran-2(5H)-one] | – |
| 2.5 µM | CC(C)OC1OC(=O)C(Cl)=C1N1CCc2ccccc21 (stereo not drawn) [Example 9, 3-Chloro-4-(2,3-dihydro-1H-indol-1-yl)-5-isopropoxy-2(5H)-one] | – |
| 11.2 µM | C#CCOC1OC(=O)C(Cl)=C1N1C(C)CNCC1C (stereo not drawn) [Example A3B20] | – |
| 1.5 µM | COC1OC(=O)C(Cl)=C1N1CCc2ccccc21 (stereo not drawn) [Example A8B2] | – |
| 0.31 µM | CC1CCC(C(C)C)C(OC2OC(=O)C(Cl)=C2N(C)Cc2ccccc2)C1 (stereo not drawn) [Example 1, 4-[Benzyl(metliyl)arino]-3-chloro-5-[(2-isopropyl-5-methlylcyclohexyl)oxo] furan-2(5H)-one] | – |
| 3 µM | COC1OC(=O)C(Cl)=C1N1CCC(c2ccccc2)CC1 (stereo not drawn) [Example A8B11] | – |
| 2.3 µM | COC1OC(=O)C(Cl)=C1n1cnc2ccccc21 (stereo not drawn) [Example A8B3] | – |
| 2.5 µM | COC1OC(=O)C(Cl)=C1Nc1cccc(C)c1 (stereo not drawn) [Example A8B4] | – |
| 1.1 µM | CC(C)OC1OC(=O)C(Cl)=C1NCCc1ccccc1 (stereo not drawn) [Example 13, 3-Chloro-5-isopropoxy-4-(phenethylamine)furan-2(5H)-one] | – |
| 0.86 µM | CCCCCCCCCCCCCCCCOC1OC(=O)C(Cl)=C1n1cc(C)cc1C (stereo not drawn) [Example A7B23] | – |
| 2.5 µM | CCCCCCCCCCCCNC1=C(Cl)C(=O)OC1OC (stereo not drawn) [Example A8B10] | – |
| 2.2 µM | CC1CCC(C(C)C)C(OC2OC(=O)C(Cl)=C2N2CCCC2)C1 (stereo not drawn) [Example A1B9] | – |
| 1.2 µM | CCC(C)NC1=C(Cl)C(=O)OC1OC (stereo not drawn) [Example A8B5] | – |
| 0.95 µM | CC(C)OC1OC(=O)C(Cl)=C1NCc1ccccc1Cl (stereo not drawn) [Example 11, 3-Chloro-4-[(2-chlorobenzyl)amino]-5-isopropoxy-4-2(SH)-oue] | – |

— patent US20070123718A1, “Novel 4-amino-2(5H)-furanones” (Aston University, priority 2003, published 2007)
